In assay [1] the test system is U-251. Briefly: Cytotoxicity against human U251MG cells assessed as reduction in cell viability after 72 hrs by CyQuant dye-based assay. The assay is classed as functional.
Assay [2] relates to NIH3T3. Briefly: Cytotoxicity against mouse NIH/3T3 cells assessed as reduction in cell viability after 72 hrs by CyQuant dye-based assay.
For assay [3], the system named is MDA-MB-231. Briefly: Cytotoxicity against human MDA-MB-231 cells assessed as reduction in cell viability after 72 hrs by CyQuant dye-based assay. It is filed as functional.
In assay [4] the target is Signal transducer and activator of transcription 3 (Homo sapiens) (UniProt P40763). Briefly: Inhibition of STAT3 activity in human U251MG cells assessed as downregulation of STAT3 phosphorylation at Tyr705 residue at 5 uM up to 24 hrs by Western blot analysis. It is filed as cell-based. For orientation: Immunoblotting shows a protein as a band on a membrane.
For assay [5] the target is unchanged. Briefly: Inhibition of STAT3 DNA binding activity in human U251MG nuclear extract at 5 uM preincubated for 30 mins followed by addition of [32P]hSIE measured up to 24 hrs by electrophoretic mobility shift assay.
In assay [6] the test system is U-251. Briefly: Antimigratory activity in human U251MG cells at 2.5 to 5.0 uM after 18 hrs by inverted fluorescence microscopic method-based wound-healing assay. The assay is classed as functional, cell-based.
Where [7] appears, read: Homo sapiens, U-251, 72 h, read-out: IC50.

The source made the active and inactive calls. The rule behind the calls is not given here.

Signal transducer and activator of transcription 3 (Homo sapiens), sequence (P40763 whole entry): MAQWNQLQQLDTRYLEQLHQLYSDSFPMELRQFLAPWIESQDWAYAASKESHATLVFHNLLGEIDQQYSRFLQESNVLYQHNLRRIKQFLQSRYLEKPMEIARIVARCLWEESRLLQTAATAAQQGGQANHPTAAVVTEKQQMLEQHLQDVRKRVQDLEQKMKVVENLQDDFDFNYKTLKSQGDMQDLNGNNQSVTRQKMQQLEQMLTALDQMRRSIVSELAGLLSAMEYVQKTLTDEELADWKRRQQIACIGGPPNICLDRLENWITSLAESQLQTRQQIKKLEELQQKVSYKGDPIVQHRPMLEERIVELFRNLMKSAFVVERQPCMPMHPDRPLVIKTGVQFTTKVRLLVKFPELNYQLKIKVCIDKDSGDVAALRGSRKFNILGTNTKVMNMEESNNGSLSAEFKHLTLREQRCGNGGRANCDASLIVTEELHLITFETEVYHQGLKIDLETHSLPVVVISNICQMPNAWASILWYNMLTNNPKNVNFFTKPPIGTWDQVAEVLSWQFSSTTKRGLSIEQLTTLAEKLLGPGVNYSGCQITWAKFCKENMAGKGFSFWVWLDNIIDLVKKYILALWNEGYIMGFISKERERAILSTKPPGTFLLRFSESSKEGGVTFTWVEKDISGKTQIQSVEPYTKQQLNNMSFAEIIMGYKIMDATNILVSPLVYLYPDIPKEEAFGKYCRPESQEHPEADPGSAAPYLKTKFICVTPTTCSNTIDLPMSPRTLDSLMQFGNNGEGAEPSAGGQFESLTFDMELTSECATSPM

For `CC(C)=CC[C@H]1C[C@]23C[C@@H]4CC=C(C)C[C@]4(C)C[C@@]2(O)c2c(oc4cc(O)c(O)cc4c2=O)[C@@](CC=C(C)C)(C3=O)C1(C)C`, the concentration for half-maximal inhibition (IC50) – broadly, the concentration needed to halve the response being measured – is 1.8 µM in assay [1] (setting [7]), “Non-Toxic” in assay [2] and “Not Active” in assay [3].

For the compound `C=C(C)CC[C@H](C[C@]12C[C@H](CC=C(C)C)C(C)(C)[C@](CC=C(C)C)(C(=O)C(C(=O)c3ccc(O)c(O)c3)=C1O)C2=O)C(=C)C`, the inhibition result in assay [4] was “Active”.

As for `C=C(C)CCC(CC12CC3C(C=C(C)C)C(C(=O)c4ccc(O)c(O)c4)(CC(CC=C(C)C)(C1=O)C3(C)C)C2=O)C(=C)C` (centres undefined), the values for the IC50 result in assay [1] (u-251), in assay [2] and in assay [3] were “Not Active”, “Non-Toxic” and “Not Active”, respectively.

Turning to `CC(C)=CC[C@H]1C[C@@]23C[C@@H](CC=C(C)C)C(C)(C)[C@@](CC=C(C)C)(C(=O)C(C(=O)c4ccc(O)c(O)c4)=C2OC1(C)C)C3=O` [CAMBOGIN], the IC50 in assay [1] (setting [7]) was 2.8 µM; in assay [2] it was “Non-Toxic”; in assay [3], “Not Active”.

On to `C=C(C)[C@H]1C[C@@]23C[C@@H](CC=C(C)C)C(C)(C)[C@@](CC=C(C)C)(C(=O)C(C(=O)c4ccc(O)c(O)c4)=C2O[C@@H]1C=C(C)C)C3=O`, for which, in assay [5], the inhibition entry was “Active”. Further, the IC50 in assay [1] (setting [7]) is 3.7 µM; in assay [2], “Non-Toxic”; in assay [3] it was “Not Active”. In assay [6], the outcome was Active.

With `CC(C)=CC[C@@H]1C[C@]23C[C@H](CC=C(C)C)C(C)(C)[C@](CC=C(C)C)(C(=O)C(C(=O)c4ccc(O)c(O)c4)=C2OC1(C)C)C3=O` [ISOXANTHOCHYMOL], the IC50 was 6 µM in assay [1] (setting [7]), “Non-Toxic” in assay [2] and “Not Active” in assay [3].

`C=C(C)C(CC=C(C)C)C[C@@]12C[C@@H](CC=C(C)C)C(C)(C)[C@@](CC=C(C)C)(C(=O)C(C(=O)c3cccc(O)c3)=C1O)C2=O` (some centres undefined): the IC50 in assay [1] (setting [7]) is 1.3 µM; in assay [2], “Non-Toxic”; in assay [3] it was “Not Active”.

On to `C=C(C)CC[C@H]1C[C@]23C[C@H](CC=C(C)C)C(C)(C)[C@](CC=C(C)C)(C2=O)c2oc4cc(O)c(O)cc4c(=O)c2[C@]3(O)CC1=C`, for which the IC50 was 3.5 µM in assay [1] (setting [7]), “Non-Toxic” in assay [2] and “Not Active” in assay [3].

For the origin of these results see ChEMBL document CHEMBL4052778, “Bioactive polyprenylated benzophenone derivatives from the fruits extracts of Garcinia xanthochymus” (Bioorg Med Chem Lett, 2017).
